Data from ChEMBL document CHEMBL4382202, “1-(2-Hydroxybenzoyl)-thiosemicarbazides are promising antimicrobial agents targeting d-alanine-d-alanine ligase in bacterio” (Eur J Med Chem, 2018).
In brackets after ≈: the same amount, converted by molar mass.

Columns and labels:
[1] = test system: Staphylococcus aureus; assay: Antibacterial activity against Staphylococcus aureus ATCC 25923 after 18 to 24 hrs by microdilution assay; assay type: functional
[2] = test system: Enterococcus faecalis; assay: Antibacterial activity against Enterococcus faecalis ATCC 29212 after 18 to 24 hrs by microdilution assay; assay type: functional
[3] = biological target: T1, D-alanine--D-alanine ligase (Enterococcus faecalis (strain ATCC 700802 / V583), UniProt Q47758); assay: Inhibition of Enterococcus faecalis JH2-2 C-terminal 6His-tagged DdlB expressed in Escherichia coli LMG194 preincubated for 30 mins followed by substrate addition and measured after 20 mins by Biomol Green reagent assay
T1 sequence (Q47758 whole entry): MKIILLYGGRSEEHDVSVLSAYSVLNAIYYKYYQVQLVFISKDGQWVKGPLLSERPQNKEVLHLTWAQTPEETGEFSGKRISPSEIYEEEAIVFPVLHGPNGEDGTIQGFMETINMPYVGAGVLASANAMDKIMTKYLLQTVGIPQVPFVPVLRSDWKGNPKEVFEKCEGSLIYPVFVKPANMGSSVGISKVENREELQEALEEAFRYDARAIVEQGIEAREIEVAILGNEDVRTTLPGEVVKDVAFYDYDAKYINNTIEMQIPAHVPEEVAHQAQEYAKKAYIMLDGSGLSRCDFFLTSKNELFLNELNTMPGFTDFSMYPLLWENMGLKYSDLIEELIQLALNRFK

[4] = test system: Staphylococcus aureus; assay: Antibacterial activity against methicillin and linezolid resistant Staphylococcus aureus NRS 119 clinical isolate after 18 to 24 hrs by microdilution assay; assay type: functional
[5] = test system: Enterococcus faecalis; assay: Antibacterial activity against vancomycin-resistant Enterococcus faecalis JH2-2::C1 after 18 to 24 hrs by microdilution assay; assay type: functional
[6] = test system: Enterococcus faecalis; assay: Antibacterial activity against vancomycin-resistant Enterococcus faecalis BM 4390 after 18 to 24 hrs by microdilution assay; assay type: functional
[7] = test system: Staphylococcus aureus; assay: Antibacterial activity against hospital-acquired methicillin/ciprofloxacin/moxifloxacin resistant Staphylococcus aureus SA 481 after 18 to 24 hrs by microdilution assay; assay type: functional
[8] = test system: Enterococcus faecalis; assay: Antibacterial activity against vancomycin-resistant Enterococcus faecalis BM 4575 clinical isolate after 18 to 24 hrs by microdilution assay; assay type: functional
[9] = test system: Staphylococcus aureus; assay: Antibacterial activity against community-acquired methicillin and erythromycin resistant Staphylococcus aureus SA 325 after 18 to 24 hrs by microdilution assay; assay type: functional
[10] = test system: Staphylococcus aureus; assay: Antibacterial activity against methicillin and vancomycin intermediate resistant Staphylococcus aureus MU50 after 18 to 24 hrs by microdilution assay; assay type: functional
[11] = test system: Staphylococcus aureus; assay: Antibacterial activity against hospital-acquired methicillin and vacomycin resistant Staphylococcus aureus VRS-1 after 18 to 24 hrs by microdilution assay; assay type: functional

SMILES | MIC [1] [µM] | MIC [2] [µM] | IC50 [3] [nM] | MIC [4] [µM] | MIC [5] [µM] | MIC [6] [µM] | MIC [7] [µM] | MIC [8] [µM] | MIC [9] [µM] | MIC [10] [µM] | MIC [11] [µM]
O=C(NNC(=S)Nc1cccc(Cl)c1)c1ccccc1 | > 100 | > 400 | – | – | – | – | – | – | – | – | –
O=C(NNC(=S)Nc1ccc(Cl)cc1)c1ccccc1 | > 100 | > 400 | – | – | – | – | – | – | – | – | –
O=C(NNC(=S)Nc1ccccc1Cl)c1ccccc1 | > 100 | > 400 | – | – | – | – | – | – | – | – | –
O=C(NNC(=S)Nc1ccccc1)c1ccccc1O | > 100 | > 400 | 800 | > 100 | > 100 | > 100 | > 100 | > 100 | > 100 | > 100 | > 100
O=C(NNC(=S)Nc1ccc(Cl)c(Cl)c1)c1ccc(O)cc1 | > 100 | > 400 | – | – | – | – | – | – | – | – | –
O=C(NNC(=S)Nc1ccc(Cl)c(Cl)c1)c1cccc(O)c1 | > 100 | > 400 | – | – | – | – | – | – | – | – | –
O=c1c2ccccc2ncn1NC(=S)Nc1ccccc1 | > 100 | > 400 | – | – | – | – | – | – | – | – | –
O=C(NNC(=S)Nc1cccc(Cl)c1)c1ccccc1O | 100 (≈ 32.2 µg/mL) | 400 (≈ 129 µg/mL) | 630 | > 100 | > 100 | > 100 | > 100 | > 100 | 100 (≈ 32.2 µg/mL) | > 100 | > 100
O=C(NNC(=O)c1ccccc1)Nc1ccc(Cl)c(Cl)c1 | > 100 | > 100 | – | – | – | – | – | – | – | – | –
O=C(NNC(=S)Nc1ccccc1F)c1ccccc1O | > 100 | 200 (≈ 61.1 µg/mL) | 970 | > 100 | > 100 | > 100 | > 100 | > 100 | > 100 | > 100 | > 100
O=C(NNC(=O)c1ccccc1O)Nc1ccc(Cl)c(Cl)c1 | > 100 | > 100 | – | – | – | – | – | – | – | – | –
N#Cc1ccc(NC(=S)NNC(=O)c2ccccc2O)cc1 | > 100 | 100 (≈ 31.2 µg/mL) | 510 | > 100 | > 100 | > 100 | > 100 | > 100 | > 100 | > 100 | > 100
O=C(NNC(=S)Nc1ccccc1F)c1ccccc1 | > 100 | > 400 | – | – | – | – | – | – | – | – | –
O=C(NNC(=S)Nc1ccccc1Cl)c1ccccc1O | > 100 | 400 (≈ 129 µg/mL) | 790 | 100 (≈ 32.2 µg/mL) | > 100 | > 100 | 100 (≈ 32.2 µg/mL) | > 100 | 100 (≈ 32.2 µg/mL) | > 100 | 100 (≈ 32.2 µg/mL)
O=C(NNC(=S)Nc1ccc(F)cc1)c1ccccc1 | > 100 | > 400 | – | – | – | – | – | – | – | – | –
O=C(NNC(=S)Nc1cccc(F)c1)c1ccccc1O | > 100 | 200 (≈ 61.1 µg/mL) | 100 | > 100 | > 100 | > 100 | > 100 | > 100 | > 100 | > 100 | > 100
O=C(NNC(=S)Nc1cccc(F)c1)c1ccccc1 | > 100 | > 400 | – | – | – | – | – | – | – | – | –
O=C(NNC(=S)Nc1ccc([N+](=O)[O-])cc1)c1ccc(O)cc1 | > 100 | > 400 | – | – | – | – | – | – | – | – | –
COc1ccc(NC(=S)NNC(=O)c2ccccc2O)cc1 | > 100 | > 400 | 710 | > 100 | > 100 | > 100 | > 100 | > 100 | > 100 | > 100 | > 100
O=C(NNC(=S)Nc1ccc(F)cc1)c1ccccc1O | > 100 | 200 (≈ 61.1 µg/mL) | 840 | > 100 | > 100 | > 100 | > 100 | > 100 | > 100 | > 100 | > 100
O=C(NNC(=S)NCCCN1CCOCC1)c1ccccc1O | > 100 | > 400 | – | > 100 | > 100 | > 100 | > 100 | > 100 | > 100 | > 100 | > 100
COc1ccccc1NC(=S)NNC(=O)c1ccccc1O | > 100 | > 400 | 550 | > 100 | > 100 | > 100 | > 100 | > 100 | > 100 | > 100 | > 100
O=C(NNC(=S)Nc1ccc(Cl)cc1Cl)c1ccccc1O | 50 (≈ 17.8 µg/mL) | 50 (≈ 17.8 µg/mL) | 580 | 25 (≈ 8.91 µg/mL) | 50 (≈ 17.8 µg/mL) | 25 (≈ 8.91 µg/mL) | 50 (≈ 17.8 µg/mL) | 25 (≈ 8.91 µg/mL) | 50 (≈ 17.8 µg/mL) | 50 (≈ 17.8 µg/mL) | 25 (≈ 8.91 µg/mL)
O=C(NNC(=S)Nc1ccc(Cl)c(Cl)c1)c1ccccc1 | > 100 | > 100 | – | – | – | – | – | – | – | – | –
O=C(NNC(=S)Nc1cccnc1)c1ccccc1O | 50 (≈ 14.4 µg/mL) | 50 (≈ 14.4 µg/mL) | – | > 100 | > 100 | > 100 | > 100 | > 100 | > 100 | > 100 | > 100
O=C(NNC(=S)Nc1ccc(Cl)cc1)c1ccccc1O | > 100 | > 400 | 830 | > 100 | > 100 | > 100 | > 100 | > 100 | > 100 | > 100 | > 100
O=C(O)c1cn(C2CC2)c2cc(N3CCNCC3)c(F)cc2c1=O [CIPROFLOXACIN] | – | – | – | – | – | – | 770 (≈ 255 µg/mL) | – | – | – | –
CC(=O)NC[C@H]1CN(c2ccc(N3CCOCC3)c(F)c2)C(=O)O1 [LINEZOLID] | – | – | – | 190 (≈ 64.1 µg/mL) | – | – | – | – | – | 3 (≈ 1.01 µg/mL) | –
CN[C@H](CC(C)C)C(=O)N[C@H]1C(=O)N[C@@H](CC(N)=O)C(=O)N[C@H]2C(=O)N[C@H]3C(=O)N[C@H](C(=O)N[C@H](C(=O)O)c4cc(O)cc(O)c4-c4cc3ccc4O)[C@H](O)c3ccc(c(Cl)c3)Oc3cc2cc(c3O[C@@H]2O[C@H](CO)[C@@H](O)[C@H](O)[C@H]2O[C@H]2C[C@](C)(N)[C@H](O)[C@H](C)O2)Oc2ccc(cc2Cl)[C@H]1O [VANCOMYCIN] | – | – | – | 0.7 (≈ 1.01 µg/mL) | 350 (≈ 507 µg/mL) | 700 (≈ 1010 µg/mL) | – | – | – | 5 (≈ 7.25 µg/mL) | > 175
